Data published in PubChem BioAssay (NCI).
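The compound was tested at five concentrations on cells cultured in 96-well plates, with a 48-hour exposure period. The concentration for full growth arrest is given as TGI.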

Assays:
Test in all cases: growth of human tumour cells (NCI), 48 h
[1] = system: BT-549 breast
[2] = system: RXF 393 renal
[3] = system: SNB-75 CNS
[4] = system: NCI/ADR-RES ovarian
[5] = system: SF-268 CNS
[6] = system: UO-31 renal
[7] = system: NCI-H23 lung
[8] = system: T-47D breast
[9] = system: U251 CNS
[10] = system: KM12 colon
[11] = system: SR leukemia
[12] = system: SK-MEL-5 melanoma
[13] = system: MDA-MB-435
[14] = system: SN12C renal
[15] = system: MDA-N
[16] = system: MOLT-4 leukemia
[17] = system: MALME-3M melanoma
[18] = system: UACC-257 melanoma
[19] = system: MDA-MB-231 breast
[20] = system: M14 melanoma

Structure (SMILES)	TGI [1] [µM]	TGI [2] [µM]	TGI [3] [µM]	TGI [4] [µM]	TGI [5] [µM]	TGI [6] [µM]	TGI [7] [µM]	TGI [8] [µM]	TGI [9] [µM]	TGI [10] [µM]	TGI [11] [µM]	TGI [12] [µM]	TGI [13] [µM]	TGI [14] [µM]	TGI [15] [µM]	TGI [16] [µM]	TGI [17] [µM]	TGI [18] [µM]	TGI [19] [µM]	TGI [20] [µM]
COc1cccc2c(=O)oc(-c3ccc(C(C)(C)C)cc3)nc12	> 100	> 100	> 100	> 100	> 100	> 100	> 100	> 100	> 100	> 100	63.1	87.4	> 100	> 100	> 100	48.2	> 100	> 100	> 100	> 100
CC1=NN(c2cccc(Cl)c2)C2(C1=C/C=C/c1ccccc1)C(Cl)C(=O)N2c1nc2ccccc2s1 (stereo unspecified)	> 100	> 49	–	> 100	56.1	> 61.2	> 80.3	> 100	37.2	> 67.5	9.54	> 58.7	> 58.4	> 100	> 100	12.1	> 100	> 100	58.3	> 91.2
O=C1NCCN1/N=C/c1c(Cl)n(-c2ccccc2)c2ccccc12	35.9	–	55	49.6	59	46.3	44.8	41	58.3	34.2	85.7	29.3	33.1	40.2	21.6	> 100	42.7	58.5	44.1	36.8
N=C(N)SCc1ccc2c(c1)Sc1ccccc1O2	16.1	14	18.2	34.6	27.8	10.6	21.5	43	> 71.4	16.4	> 31.6	3.11	19.1	46.9	19	> 93.3	23.1	14.2	45.2	7.55
NC1=NCC(CN2CCOCC2)O1 (stereo unspecified)	> 100	> 100	> 100	> 100	> 100	> 100	> 100	> 100	> 100	> 100	> 100	> 100	> 100	> 100	> 100	> 100	> 100	> 100	> 100	> 100
N#CC12C(=O)N=C(N)C1(C#N)C(c1ccco1)NC1=C2CCCC1 (stereo unspecified)	> 100	> 100	–	> 100	> 100	> 100	> 100	> 100	> 100	> 100	> 100	> 100	> 100	> 100	> 100	> 100	> 100	> 100	> 100	> 100
CSC(=S)N(C)C	> 100	> 100	> 100	> 100	> 100	> 100	> 100	> 100	> 100	> 100	> 100	> 100	> 100	> 100	> 100	> 100	> 100	> 100	> 100	> 100
Cc1ccc(S(=O)(=O)N/N=C/C2(c3ccccc3)c3ccccc3-c3ccccc32)cc1	27.7	27.3	–	24.6	52.7	18.6	37.1	44	26.7	20.2	> 100	23.9	24.4	23.9	14.9	> 100	19.2	31.4	20.8	23.3
COc1ccc2c(c1)/C(=C\c1c(Cl)nc3sc(C)cn13)C(=O)N2	20.5	21.1	17.1	17.7	17.3	19	18.9	14.6	11.6	15.2	15.6	11.8	1.43	21.9	2.04	8.41	19.9	21	17.7	8.89
